Targets include MAP2K6 (Homo sapiens, UniProt P52564); MAPK4 (Homo sapiens, UniProt P31152); SGK1 (Homo sapiens, UniProt O00141); MAP3K10 (Homo sapiens, UniProt Q02779); MAPK10 (Homo sapiens, UniProt P53779); LRRK2 (Homo sapiens, UniProt Q5S007); MAP3K7 (Homo sapiens, UniProt O43318); NEK6 (Homo sapiens, UniProt Q9HC98); SLK (Homo sapiens, UniProt Q9H2G2); ABL2 (Homo sapiens, UniProt P42684); GSK3A (Homo sapiens, UniProt P49840); AKT2 (Homo sapiens, UniProt P31751); CSNK1G3 (Homo sapiens, UniProt Q9Y6M4); EPHB2 (Homo sapiens, UniProt P29323); DAPK1 (Homo sapiens, UniProt P53355); MYO3B (Homo sapiens, UniProt Q8WXR4); INSR (Homo sapiens, UniProt P06213); WNK2 (Homo sapiens, UniProt Q9Y3S1); WEE2 (Homo sapiens, UniProt P0C1S8); FLT1 (Homo sapiens, UniProt P17948).

Holding throughout (test): biochemical
Set-up in all cases: KINOMEscan competition binding, DNA-tagged kinase against immobilised ligand, qPCR read-out
Common to all, as to details: read-out: Percent Control
(In qPCR the cycle at which signal appears reflects the starting amount.)

Chain of EPHB2 (P29323 whole entry): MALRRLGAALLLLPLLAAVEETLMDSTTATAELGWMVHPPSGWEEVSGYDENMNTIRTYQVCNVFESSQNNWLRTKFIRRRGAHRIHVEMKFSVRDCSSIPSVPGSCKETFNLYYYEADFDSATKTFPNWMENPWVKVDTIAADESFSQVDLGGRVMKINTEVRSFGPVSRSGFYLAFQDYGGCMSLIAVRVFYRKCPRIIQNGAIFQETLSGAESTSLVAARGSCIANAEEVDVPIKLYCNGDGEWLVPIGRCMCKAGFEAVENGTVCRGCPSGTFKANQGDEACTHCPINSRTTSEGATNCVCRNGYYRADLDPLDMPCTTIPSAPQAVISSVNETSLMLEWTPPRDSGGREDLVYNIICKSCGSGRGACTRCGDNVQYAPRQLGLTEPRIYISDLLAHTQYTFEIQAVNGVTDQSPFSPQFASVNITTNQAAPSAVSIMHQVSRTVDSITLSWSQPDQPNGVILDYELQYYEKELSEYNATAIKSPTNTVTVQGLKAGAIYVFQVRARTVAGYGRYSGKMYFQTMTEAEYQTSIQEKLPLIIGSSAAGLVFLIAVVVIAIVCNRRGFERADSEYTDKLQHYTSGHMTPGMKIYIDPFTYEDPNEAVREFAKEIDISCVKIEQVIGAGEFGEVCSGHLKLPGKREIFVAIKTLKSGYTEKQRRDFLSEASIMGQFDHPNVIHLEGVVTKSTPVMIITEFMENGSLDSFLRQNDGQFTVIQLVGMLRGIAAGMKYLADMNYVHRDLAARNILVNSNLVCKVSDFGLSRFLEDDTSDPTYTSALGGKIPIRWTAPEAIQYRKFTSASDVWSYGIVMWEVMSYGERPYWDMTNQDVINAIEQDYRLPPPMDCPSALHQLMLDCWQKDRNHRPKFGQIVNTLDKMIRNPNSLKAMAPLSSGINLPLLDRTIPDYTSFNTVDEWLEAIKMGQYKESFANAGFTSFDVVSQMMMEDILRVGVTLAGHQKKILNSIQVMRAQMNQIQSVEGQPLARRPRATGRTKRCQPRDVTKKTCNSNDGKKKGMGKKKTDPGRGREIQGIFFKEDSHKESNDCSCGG
Chain of SLK (Q9H2G2 whole entry): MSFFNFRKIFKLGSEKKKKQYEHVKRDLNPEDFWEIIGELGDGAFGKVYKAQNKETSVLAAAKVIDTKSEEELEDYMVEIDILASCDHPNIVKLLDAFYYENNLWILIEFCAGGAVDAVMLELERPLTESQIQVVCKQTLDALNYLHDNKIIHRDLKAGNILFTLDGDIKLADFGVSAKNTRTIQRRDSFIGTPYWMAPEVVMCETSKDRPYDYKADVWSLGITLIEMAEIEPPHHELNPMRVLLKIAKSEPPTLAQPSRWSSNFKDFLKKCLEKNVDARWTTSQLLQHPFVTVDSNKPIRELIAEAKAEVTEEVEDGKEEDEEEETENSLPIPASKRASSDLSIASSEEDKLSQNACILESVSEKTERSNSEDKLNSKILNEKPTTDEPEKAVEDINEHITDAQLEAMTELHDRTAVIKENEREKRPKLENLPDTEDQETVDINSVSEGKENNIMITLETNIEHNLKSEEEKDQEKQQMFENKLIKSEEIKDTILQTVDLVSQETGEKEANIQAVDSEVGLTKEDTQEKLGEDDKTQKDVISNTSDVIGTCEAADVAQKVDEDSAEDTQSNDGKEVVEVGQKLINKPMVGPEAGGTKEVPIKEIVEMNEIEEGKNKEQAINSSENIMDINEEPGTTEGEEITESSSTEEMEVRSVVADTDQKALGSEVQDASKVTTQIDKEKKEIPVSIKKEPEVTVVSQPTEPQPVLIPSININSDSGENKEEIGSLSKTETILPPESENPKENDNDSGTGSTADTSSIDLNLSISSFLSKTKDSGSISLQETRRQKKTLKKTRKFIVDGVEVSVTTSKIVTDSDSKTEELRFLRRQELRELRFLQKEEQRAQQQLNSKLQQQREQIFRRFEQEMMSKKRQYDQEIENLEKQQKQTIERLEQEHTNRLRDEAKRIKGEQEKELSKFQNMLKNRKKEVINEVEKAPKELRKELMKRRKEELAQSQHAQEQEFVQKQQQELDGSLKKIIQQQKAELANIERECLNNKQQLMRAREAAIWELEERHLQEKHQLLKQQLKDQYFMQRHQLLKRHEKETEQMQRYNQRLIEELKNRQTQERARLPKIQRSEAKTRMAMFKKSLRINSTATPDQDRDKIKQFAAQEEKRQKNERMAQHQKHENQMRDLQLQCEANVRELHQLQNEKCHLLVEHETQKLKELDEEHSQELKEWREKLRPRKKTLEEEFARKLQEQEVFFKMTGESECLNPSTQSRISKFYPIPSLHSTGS
Chain of CSNK1G3 (Q9Y6M4 whole entry): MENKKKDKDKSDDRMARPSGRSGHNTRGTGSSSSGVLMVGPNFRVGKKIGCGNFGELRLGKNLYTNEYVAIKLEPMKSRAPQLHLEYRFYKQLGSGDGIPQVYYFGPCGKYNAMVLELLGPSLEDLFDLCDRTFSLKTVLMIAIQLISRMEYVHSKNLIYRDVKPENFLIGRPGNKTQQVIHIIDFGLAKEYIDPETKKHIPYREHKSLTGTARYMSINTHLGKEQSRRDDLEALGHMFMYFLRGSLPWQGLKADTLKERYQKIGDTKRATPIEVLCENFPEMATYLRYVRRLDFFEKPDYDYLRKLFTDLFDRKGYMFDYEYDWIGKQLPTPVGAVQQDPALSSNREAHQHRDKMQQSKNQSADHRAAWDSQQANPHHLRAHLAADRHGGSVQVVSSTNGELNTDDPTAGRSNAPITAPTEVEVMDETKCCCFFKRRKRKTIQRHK
Chain of MYO3B (Q8WXR4 whole entry): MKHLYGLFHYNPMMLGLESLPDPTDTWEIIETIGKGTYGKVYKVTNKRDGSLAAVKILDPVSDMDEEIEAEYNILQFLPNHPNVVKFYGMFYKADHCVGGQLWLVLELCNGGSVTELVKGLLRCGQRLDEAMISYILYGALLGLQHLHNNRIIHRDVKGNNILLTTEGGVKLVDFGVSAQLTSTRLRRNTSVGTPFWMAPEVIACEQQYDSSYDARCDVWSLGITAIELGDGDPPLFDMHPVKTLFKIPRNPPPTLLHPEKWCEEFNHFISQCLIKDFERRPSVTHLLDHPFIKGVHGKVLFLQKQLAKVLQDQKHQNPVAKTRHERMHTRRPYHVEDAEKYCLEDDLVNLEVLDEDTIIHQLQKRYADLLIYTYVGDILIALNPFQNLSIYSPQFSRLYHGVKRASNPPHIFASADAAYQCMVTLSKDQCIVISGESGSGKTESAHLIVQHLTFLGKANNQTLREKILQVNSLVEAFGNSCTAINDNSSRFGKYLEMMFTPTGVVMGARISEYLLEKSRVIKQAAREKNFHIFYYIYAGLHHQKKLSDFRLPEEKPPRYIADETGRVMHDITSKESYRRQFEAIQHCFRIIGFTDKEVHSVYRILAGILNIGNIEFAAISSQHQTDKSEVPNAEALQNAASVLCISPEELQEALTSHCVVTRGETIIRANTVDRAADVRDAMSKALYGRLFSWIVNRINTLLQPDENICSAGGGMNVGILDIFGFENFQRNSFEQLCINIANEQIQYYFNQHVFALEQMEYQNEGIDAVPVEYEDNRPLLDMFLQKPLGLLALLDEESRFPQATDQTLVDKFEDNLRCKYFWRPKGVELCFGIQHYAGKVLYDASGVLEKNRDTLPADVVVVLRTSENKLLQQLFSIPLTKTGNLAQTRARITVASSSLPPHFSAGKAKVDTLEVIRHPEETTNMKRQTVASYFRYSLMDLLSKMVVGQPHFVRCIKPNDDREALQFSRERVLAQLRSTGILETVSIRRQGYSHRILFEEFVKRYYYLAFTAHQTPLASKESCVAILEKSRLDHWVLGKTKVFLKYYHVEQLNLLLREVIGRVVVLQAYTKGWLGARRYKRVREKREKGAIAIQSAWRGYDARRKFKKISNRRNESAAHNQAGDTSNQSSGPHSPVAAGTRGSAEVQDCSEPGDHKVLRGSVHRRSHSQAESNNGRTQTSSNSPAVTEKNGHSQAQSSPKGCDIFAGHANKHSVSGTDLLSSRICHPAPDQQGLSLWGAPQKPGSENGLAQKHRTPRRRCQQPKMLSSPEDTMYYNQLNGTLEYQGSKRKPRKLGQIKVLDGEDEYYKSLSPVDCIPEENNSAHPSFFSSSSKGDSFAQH
Chain of NEK6 (Q9HC98 whole entry): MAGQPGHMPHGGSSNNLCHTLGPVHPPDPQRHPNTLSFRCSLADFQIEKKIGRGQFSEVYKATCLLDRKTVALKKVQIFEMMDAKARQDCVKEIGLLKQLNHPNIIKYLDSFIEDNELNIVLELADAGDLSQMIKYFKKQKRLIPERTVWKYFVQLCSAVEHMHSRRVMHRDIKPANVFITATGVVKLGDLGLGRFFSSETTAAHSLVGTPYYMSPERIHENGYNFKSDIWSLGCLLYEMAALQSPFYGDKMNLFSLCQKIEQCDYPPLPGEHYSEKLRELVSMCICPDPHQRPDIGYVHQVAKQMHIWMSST
Chain of GSK3A (P49840 whole entry): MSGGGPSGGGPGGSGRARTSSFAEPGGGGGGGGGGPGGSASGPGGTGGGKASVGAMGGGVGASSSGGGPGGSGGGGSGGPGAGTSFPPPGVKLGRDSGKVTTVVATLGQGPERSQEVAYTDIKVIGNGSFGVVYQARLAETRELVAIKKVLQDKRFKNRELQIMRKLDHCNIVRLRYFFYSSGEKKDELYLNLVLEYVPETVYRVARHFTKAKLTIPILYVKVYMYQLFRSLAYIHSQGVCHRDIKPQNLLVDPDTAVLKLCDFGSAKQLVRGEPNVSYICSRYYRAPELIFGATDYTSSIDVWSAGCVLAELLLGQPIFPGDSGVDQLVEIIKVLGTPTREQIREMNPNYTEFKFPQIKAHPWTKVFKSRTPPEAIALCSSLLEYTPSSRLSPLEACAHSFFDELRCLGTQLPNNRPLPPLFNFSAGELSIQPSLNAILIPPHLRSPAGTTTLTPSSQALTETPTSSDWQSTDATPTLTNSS

Regarding `Oc1ccc(C2=Cc3ccc(O)cc3OC2)cc1` [compound 1, idronoxil], the remaining binding at 10 µM on MAP2K6 is 85%; on MAPK4, 100%; on SGK1 it was 77%; at MAP3K10, 82%; at MAPK10, 93%; on LRRK2 it was 90%. The remaining binding at 10 µM at MAP3K7 was 89%; on NEK6, 100%; on SLK it was 73%; on ABL2, 79%; on GSK3A it was 74%; on AKT2 it was 90%. The remaining binding at 10 µM on CSNK1G3 was found to be 100%; on EPHB2, 86%; on DAPK1, 53%; at MYO3B, 100%; at INSR, 71%; at WNK2, 51%. Further, the remaining binding at 10 µM on WEE2 came out at 95%; at FLT1 it was 100%.

These data come from publication PMC10507085, “Pharmacological inhibition of TBK1/IKKε blunts immunopathology in a murine model of SARS-CoV-2 infection” (Nature Communications, 2023).
